From patent publication US20180000085A1, “USE OF PICOLINAMIDE COMPOUNDS WITH FUNGICIDAL ACTIVITY” (DOW AGROSCIENCES LLC, priority 2014, published 2018)

Legend:
Zymoseptoria tritici = assay: Leaf blotch of wheat (SEPTTR) disease control on wheat seedlings; format: in vivo; design: key to SEPTTR 1DP, HV activity at 100 ppm (% control rating) / SEPTTR 3DC, HV activity at 100 ppm (% control rating) / SEPTTR disease control, 1DP / SEPTTR disease control, 3DC / SEPTTR 1DP disease control rating, HV activity / SEPTTR 3DC disease control rating, HV activity / SEPTTR 3DC, LV activity at 125.1 g/H (% Control rating) / SEPTTR 1DP, LV activity at 125.1 g/H (% Control rating) / SEPTTR 1DP disease control rating, LV activity at 125.1 g/H / SEPTTR 3DC disease control rating, LV activity at 125.1 g/H / SEPTTR 3DC disease control rating, HV activity at 100 ppm / SEPTTR 1DP disease control rating, HV activity at 100 ppm / HV activity at 100 ppm SEPTTR 3DC (disease control rating) / HV activity at 100 ppm SEPTTR 1DP (disease control rating) / LV activity at 125.1 g/H SEPTTR 1DP (disease control rating) / LV activity at 125.1 g/H SEPTTR 3DC (disease control rating): A: > 80; B: ≤ 80; C: Not Tested; D: No Activity Observed in the Reported Assay; settings: for SEPTTR 1DP disease control rating, HV activity / SEPTTR 3DC disease control rating, HV activity: HV application at 100 ppm; for SEPTTR 1DP disease control rating, HV activity / SEPTTR 3DC disease control rating, HV activity / LV activity at 125.1 g/H SEPTTR 1DP (disease control rating) / LV activity at 125.1 g/H SEPTTR 3DC (disease control rating): wheat leaf blotch; for SEPTTR 1DP disease control rating, LV activity at 125.1 g/H / SEPTTR 1DP disease control rating, HV activity at 100 ppm: 1 day protectant; for SEPTTR 3DC disease control rating, LV activity at 125.1 g/H / SEPTTR 3DC disease control rating, HV activity at 100 ppm: 3 day curative; for SEPTTR 1DP disease control rating, HV activity at 100 ppm / SEPTTR 3DC disease control rating, HV activity at 100 ppm: high volume application
Puccinia triticina = assay: Wheat brown rust (PUCCRT) disease control on wheat seedlings; format: in vivo; design: key to PUCCRT 3DC, HV activity at 100 ppm (% control rating) / PUCCRT disease control, 3DC / PUCCRT 1DP disease control rating, HV activity / PUCCRT 3DC disease control rating, HV activity / PUCCRT 3DC, LV activity at 125.1 g/H (% Control rating) / PUCCRT 1DP, LV activity at 125.1 g/H (% Control rating) / PUCCRT 3DC disease control rating, LV activity at 125.1 g/H / PUCCRT 1DP disease control rating, LV activity at 125.1 g/H / PUCCRT 3DC disease control rating, HV activity at 100 ppm / PUCCRT 1DP disease control rating, HV activity at 100 ppm / HV activity at 100 ppm PUCCRT 3DC (disease control rating) / LV activity at 125.1 g/H PUCCRT 1DP (disease control rating) / LV activity at 125.1 g/H PUCCRT 3DC (disease control rating): A: > 80; B: ≤ 80; C: Not Tested; D: No Activity Observed in the Reported Assay; settings: for PUCCRT 1DP disease control rating, HV activity / PUCCRT 3DC disease control rating, HV activity: HV application at 100 ppm; for PUCCRT 1DP disease control rating, HV activity / PUCCRT 3DC disease control rating, HV activity / LV activity at 125.1 g/H PUCCRT 1DP (disease control rating) / LV activity at 125.1 g/H PUCCRT 3DC (disease control rating): wheat brown rust; for PUCCRT 1DP disease control rating, LV activity at 125.1 g/H / PUCCRT 1DP disease control rating, HV activity at 100 ppm: 1 day protectant; for PUCCRT 3DC disease control rating, LV activity at 125.1 g/H / PUCCRT 3DC disease control rating, HV activity at 100 ppm: 3 day curative; for PUCCRT 1DP disease control rating, HV activity at 100 ppm / PUCCRT 3DC disease control rating, HV activity at 100 ppm: high volume application
[1] = low volume application, 125.1 g/H
[2] = low volume application, 125.1 g/H, 1 Day Protectant
[3] = low volume application, 125.1 g/H, 3 Day Curative

COc1ccnc(C(=O)NC(C)C(=O)OC(C)C(Oc2ccc(C(F)(F)F)cc2)C(C)C)c1O (stereo not drawn) [Cmpd 394]
SEPTTR 1DP disease control rating, HV activity (Zymoseptoria tritici; 1 Day Protectant): A (> 80) | SEPTTR 3DC disease control rating, HV activity (Zymoseptoria tritici; 3 Day Curative): B (≤ 80) | PUCCRT 1DP disease control rating, HV activity (Puccinia triticina; 1 Day Protectant): B (≤ 80) | PUCCRT 3DC disease control rating, HV activity (Puccinia triticina; 3 Day Curative): B (≤ 80)

COc1ccnc(C(=O)N[C@@H](C)C(=O)O[C@@H](C)[C@@H](OCC(C)C)c2ccccc2)c1OCOC(C)=O [Cmpd 880]
SEPTTR 1DP disease control rating, LV activity at 125.1 g/H (Zymoseptoria tritici; [1]): B (≤ 80) | SEPTTR 3DC disease control rating, LV activity at 125.1 g/H (Zymoseptoria tritici; [1]): B (≤ 80) | PUCCRT 1DP disease control rating, LV activity at 125.1 g/H (Puccinia triticina; [1]): A (> 80) | PUCCRT 3DC disease control rating, LV activity at 125.1 g/H (Puccinia triticina; [1]): A (> 80)

C=CC[C@@H](Oc1cccc(Cl)c1)[C@H](C)OC(=O)[C@H](C)NC(=O)c1nccc(OC)c1OC(C)=O [Cmpd 1079]
LV activity at 125.1 g/H SEPTTR 1DP (disease control rating) (Zymoseptoria tritici; [2]): B (≤ 80) | LV activity at 125.1 g/H SEPTTR 3DC (disease control rating) (Zymoseptoria tritici; [3]): B (≤ 80) | LV activity at 125.1 g/H PUCCRT 1DP (disease control rating) (Puccinia triticina; [2]): A (> 80) | LV activity at 125.1 g/H PUCCRT 3DC (disease control rating) (Puccinia triticina; [3]): A (> 80)

COc1ccnc(C(=O)NC(C)C(=O)OC(C)C(OC)C23CC4CC(CC(C4)C2)C3)c1O (stereo not drawn) [Cmpd 829]
SEPTTR 1DP disease control rating, HV activity at 100 ppm (Zymoseptoria tritici): D | SEPTTR 3DC disease control rating, HV activity at 100 ppm (Zymoseptoria tritici): D | PUCCRT 1DP disease control rating, HV activity at 100 ppm (Puccinia triticina): B (≤ 80) | PUCCRT 3DC disease control rating, HV activity at 100 ppm (Puccinia triticina): D

CCCC(OC(=O)C(C)NC(=O)c1nccc(OC)c1OCOC(C)=O)C(Oc1ccccc1)C(C)C (stereo not drawn) [Cmpd 1093]
LV activity at 125.1 g/H SEPTTR 1DP (disease control rating) (Zymoseptoria tritici; [2]): D | LV activity at 125.1 g/H SEPTTR 3DC (disease control rating) (Zymoseptoria tritici; [3]): D | LV activity at 125.1 g/H PUCCRT 1DP (disease control rating) (Puccinia triticina; [2]): D | LV activity at 125.1 g/H PUCCRT 3DC (disease control rating) (Puccinia triticina; [3]): D

COc1ccnc(C(=O)NC(C)C(=O)OC(C)C(Oc2ccc(Cl)cc2Cl)c2ccccc2)c1OCOC(C)=O (stereo not drawn) [Cmpd 869]
SEPTTR 1DP disease control rating, LV activity at 125.1 g/H (Zymoseptoria tritici; [1]): A (> 80) | SEPTTR 3DC disease control rating, LV activity at 125.1 g/H (Zymoseptoria tritici; [1]): A (> 80) | PUCCRT 1DP disease control rating, LV activity at 125.1 g/H (Puccinia triticina; [1]): A (> 80) | PUCCRT 3DC disease control rating, LV activity at 125.1 g/H (Puccinia triticina; [1]): B (≤ 80)

CCC(CC)[C@@H](OCC1CC1)[C@H](C)OC(=O)[C@H](C)NC(=O)c1nccc(OC)c1O [Cmpd 353]
SEPTTR 1DP disease control rating, HV activity (Zymoseptoria tritici; 1 Day Protectant): B (≤ 80) | SEPTTR 3DC disease control rating, HV activity (Zymoseptoria tritici; 3 Day Curative): B (≤ 80) | PUCCRT 1DP disease control rating, HV activity (Puccinia triticina; 1 Day Protectant): A (> 80) | PUCCRT 3DC disease control rating, HV activity (Puccinia triticina; 3 Day Curative): A (> 80)

CCC(CC)[C@@H](Oc1ccc(C(F)(F)F)cc1)[C@H](C)OC(=O)[C@H](C)NC(=O)c1nccc(OC)c1OC(C)=O [Cmpd 605]
SEPTTR 1DP, LV activity at 125.1 g/H (% Control rating) (Zymoseptoria tritici; [2]): A (> 80) | SEPTTR 3DC, LV activity at 125.1 g/H (% Control rating) (Zymoseptoria tritici; [3]): B (≤ 80) | PUCCRT 1DP, LV activity at 125.1 g/H (% Control rating) (Puccinia triticina; [2]): A (> 80) | PUCCRT 3DC, LV activity at 125.1 g/H (% Control rating) (Puccinia triticina; [3]): B (≤ 80)

COc1ccnc(C(=O)N[C@@H](C)C(=O)O[C@@H](C)[C@H](Oc2ccc(Cl)cc2)C2CCCC2)c1O [Cmpd 842]
SEPTTR 1DP disease control rating, HV activity at 100 ppm (Zymoseptoria tritici): A (> 80) | SEPTTR 3DC disease control rating, HV activity at 100 ppm (Zymoseptoria tritici): B (≤ 80) | PUCCRT 1DP disease control rating, HV activity at 100 ppm (Puccinia triticina): A (> 80) | PUCCRT 3DC disease control rating, HV activity at 100 ppm (Puccinia triticina): A (> 80)
